Activity calls are given as the source filed them. The calls are words filed in the database; no cut-off is given here.
What was measured:
B16-F10 [1] = experiment: Antitumor activity against mouse B16-F10 cells implanted in C57BL/6J mouse assessed as reduction on tumor weight at 60 mg/kg, IG administered for 12 days; format: functional, organism-based; conditions: time 12.0 day
Histone deacetylase = experiment: Inhibition of HDAC in human HeLa nuclear extract using fluorogenic substrate incubated for 30 mins by fluorescence based assay; format: cell-based
Histone deacetylase 1 = Histone deacetylase 1 (Homo sapiens, UniProt Q13547); experiment: Inhibition of HDAC1 (unknown origin) using fluorogenic substrate incubated for 30 mins by fluorescence based assay
Histone deacetylase 2 = Histone deacetylase 2 (Homo sapiens, UniProt Q92769); experiment: Inhibition of HDAC2 (unknown origin) using fluorogenic substrate incubated for 30 mins by fluorescence based assay
Histone deacetylase 8 = target: T1, Histone deacetylase 8 (Homo sapiens, UniProt Q9BY41); experiment: Inhibition of HDAC8 (unknown origin) using fluorogenic substrate incubated for 30 mins by fluorescence based assay
T1 sequence (Q9BY41 whole entry): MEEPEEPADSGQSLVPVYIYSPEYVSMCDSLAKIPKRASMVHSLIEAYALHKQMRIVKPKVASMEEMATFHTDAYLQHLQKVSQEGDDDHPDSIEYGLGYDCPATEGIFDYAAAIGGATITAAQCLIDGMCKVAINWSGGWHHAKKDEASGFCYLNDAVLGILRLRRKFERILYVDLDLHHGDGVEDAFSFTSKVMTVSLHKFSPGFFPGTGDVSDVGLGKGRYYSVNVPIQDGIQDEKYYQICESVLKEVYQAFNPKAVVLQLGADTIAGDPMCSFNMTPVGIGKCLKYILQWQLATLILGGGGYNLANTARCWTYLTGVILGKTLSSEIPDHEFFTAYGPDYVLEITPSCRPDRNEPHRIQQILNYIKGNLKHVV

PC-3 = experiment: cells; format: functional, cell-based; conditions: Homo sapiens, PC-3, 48 h
Description: Antiproliferative activity against human PC3 cells assessed as inhibition of cell growth measured after 48 hrs by MTT assay

HepG2 = experiment: cells; format: functional, cell-based; conditions: Homo sapiens, HepG2, 48 h
Description: Antiproliferative activity against human HepG2 cells assessed as inhibition of cell growth measured after 48 hrs by MTT assay

HEL [2] = experiment: cells; format: functional, cell-based; conditions: Homo sapiens, 48 h
Description: Antiproliferative activity against HEL cells assessed as inhibition of cell growth measured after 48 hrs by MTT assay

KG-1 = experiment: Antiproliferative activity against human KG-1 cells assessed as inhibition of cell growth measured after 48 hrs by MTT assay; format: functional, cell-based; conditions: KG-1, 48 h
K562 = experiment: cells; format: functional, cell-based; conditions: Homo sapiens, K562, 48 h
Description: Antiproliferative activity against human K562 cells assessed as inhibition of cell growth measured after 48 hrs by MTT assay

HEL [3] = experiment: Antitumor activity against HEL cells xenografted in mouse assessed as inhibition of tumor growth at 90 mg/kg, ip administered for 20 days; format: functional, organism-based; conditions: Homo sapiens, time 20.0 day
[4] = Toxicity in mouse xenografted with HEL cells assessed as effect on body weight at 90 mg/kg, ip administered for 20 days; format: organism-based; conditions: in vivo, 480 h, time 20 day
B16-F10 [5] = experiment: cells; format: functional, cell-based; conditions: Mus musculus, B16-F10, 48 h
Description: Antiproliferative activity against mouse B16-F10 cells assessed as inhibition of cell growth measured after 48 hrs by MTT assay

B16-F10 [6] = experiment: Induction of apoptosis in mouse B16-F10 cells at 5 to 10 uM measured after 24 hrs by Annexin V-FITC/propidium iodide staining based flow cytometry analysis; format: functional, cell-based; conditions: dose 5-10 µM
B16-F10 [7] = experiment: Antitumor activity against mouse B16-F10 cells implanted in C57BL/6J mouse assessed as reduction on tumor volume at 60 mg/kg, IG administered for 12 days; format: functional, organism-based; conditions: time 12.0 day
B16-F10 [8] = experiment: Antitumor activity against mouse B16-F10 cells implanted in C57BL/6J mouse assessed as reduction on tumor size at 60 mg/kg, IG administered for 12 days; format: functional, organism-based; conditions: time 12.0 day
[9] = Toxicity in C57BL/6J mouse implanted with mouse B16-F10 cells assessed as effect on body weight at 60 mg/kg, IG administered for 12 days; format: organism-based; conditions: in vivo, po, 288 h, time 12 day
[10] = Toxicity in C57BL/6J mouse implanted with mouse B16-F10 cells assessed as glomerular structure damage in kidney at 60 mg/kg, IG administered for 12 days H and E staining based histopathological analysis; format: organism-based; conditions: in vivo, po, 288 h, time 12 day
[11] = Toxicity in C57BL/6J mouse implanted with mouse B16-F10 cells assessed as liver damage at 60 mg/kg, IG administered for 12 days H and E staining based histopathological analysis; format: organism-based; conditions: in vivo, po, 288 h, time 12 day
[12] = Toxicity in C57BL/6J mouse implanted with mouse B16-F10 cells assessed as spleen damage at 60 mg/kg, IG administered for 12 days H and E staining based histopathological analysis; format: organism-based; conditions: in vivo, po, 288 h, time 12 day
B16-F10 [13] = experiment: Antitumor immunity against mouse B16-F10 cells implanted in C57BL/6J mouse assessed as fold increase in proportion of macrophages in spleen by flow cytometry analysis relative to control; format: functional
B16-F10 [14] = experiment: Antitumor immunity against mouse B16-F10 cells implanted in C57BL/6J mouse assessed as fold increase in CD86 expression by flow cytometry analysis relative to control; format: functional
B16-F10 [15] = experiment: Antitumor immunity against mouse B16-F10 cells implanted in C57BL/6J mouse assessed as fold reduction in Treg cells in spleen by flow cytometry analysis relative to control; format: functional
B16-F10 [16] = experiment: Antitumor immunity against mouse B16-F10 cells implanted in C57BL/6J mouse assessed as fold increase in downregulation of CD200R expression in spleen by flow cytometry analysis relative to control; format: functional
B16-F10 [17] = experiment: Antitumor activity against mouse B16-F10 cells xenografted in C57BL/6J mouse assessed as reduction in tumor heterogeneity at 60 mg/kg, IG administered for 12 days by H and E staining based histopathological analysis; format: functional, organism-based; conditions: time 12.0 day
B16-F10 [18] = experiment: Antitumor activity against mouse B16-F10 cells xenografted in C57BL/6J mouse assessed as change in tumor cell morphology into normal tissue at 60 mg/kg, IG administered for 12 days by H and E staining based histopathological analysis; format: functional, organism-based; conditions: time 12.0 day

Chain of Histone deacetylase 1 (Q13547 whole entry): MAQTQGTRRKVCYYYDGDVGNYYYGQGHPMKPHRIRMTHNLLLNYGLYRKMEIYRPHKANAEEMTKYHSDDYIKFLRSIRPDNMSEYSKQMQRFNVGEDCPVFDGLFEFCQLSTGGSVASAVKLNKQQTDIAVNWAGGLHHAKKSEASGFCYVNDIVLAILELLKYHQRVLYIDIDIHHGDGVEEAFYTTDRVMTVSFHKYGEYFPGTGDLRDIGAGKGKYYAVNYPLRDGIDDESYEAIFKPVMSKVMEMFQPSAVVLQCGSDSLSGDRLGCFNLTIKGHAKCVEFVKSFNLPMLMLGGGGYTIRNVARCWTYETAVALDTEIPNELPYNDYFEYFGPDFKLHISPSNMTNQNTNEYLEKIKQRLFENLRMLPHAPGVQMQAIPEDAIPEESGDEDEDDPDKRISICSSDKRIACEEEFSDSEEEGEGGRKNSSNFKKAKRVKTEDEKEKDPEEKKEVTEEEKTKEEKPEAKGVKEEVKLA
Chain of Histone deacetylase 2 (Q92769 whole entry): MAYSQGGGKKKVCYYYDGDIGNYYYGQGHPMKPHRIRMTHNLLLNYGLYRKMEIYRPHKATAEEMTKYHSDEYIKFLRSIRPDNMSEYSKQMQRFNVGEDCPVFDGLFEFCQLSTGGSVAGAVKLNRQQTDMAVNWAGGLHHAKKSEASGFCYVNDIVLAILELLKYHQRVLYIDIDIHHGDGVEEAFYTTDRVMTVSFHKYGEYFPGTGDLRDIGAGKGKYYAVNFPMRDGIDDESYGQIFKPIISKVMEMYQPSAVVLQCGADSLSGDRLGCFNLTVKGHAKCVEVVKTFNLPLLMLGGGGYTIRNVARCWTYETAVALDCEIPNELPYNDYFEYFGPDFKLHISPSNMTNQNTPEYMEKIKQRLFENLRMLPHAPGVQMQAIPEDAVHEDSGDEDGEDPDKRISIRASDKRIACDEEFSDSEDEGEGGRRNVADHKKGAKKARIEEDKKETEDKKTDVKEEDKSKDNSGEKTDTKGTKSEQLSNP

SMILES | Activity (B16-F10 [1]) | IC50 (Histone deacetylase) [µM] | IC50 (Histone deacetylase 1) [µM] | IC50 (Histone deacetylase 2) [µM] | IC50 (Histone deacetylase 8) [µM] | IC50 (PC-3) [µM] | IC50 (HepG2) [µM] | IC50 (HEL [2]) [µM] | IC50 (KG-1) [µM] | IC50 (K562) [µM] | Activity (HEL [3]) | Activity [4] | IC50 (B16-F10 [5]) [µM] | Activity (B16-F10 [6]) | Activity (B16-F10 [7]) | Activity (B16-F10 [8]) | Activity [9] | Activity [10] | Activity [11] | Activity [12] | further results
O=C(CCCCCCCOc1cccc(-c2nc3ccccc3[nH]2)c1)NO | Active | 0.0079 | 0.052 | 0.091 | 0.0129 | 7.9 | 4.8 | 0.36 | 3.4 | 0.99 | Active | Non-Toxic | 3.97 | Active | Active | Active | Non-Toxic | Toxic | Non-Toxic | Non-Toxic | fold change (FC) (B16-F10 [13]): 1.6; fold change (FC) (B16-F10 [14]): 1.3; fold change (FC) (B16-F10 [15]): 1.5; fold change (FC) (B16-F10 [16]): 1.3; Activity (B16-F10 [17]): Active; Activity (B16-F10 [18]): Active
O=C(CCCCCCOc1cccc(-c2nc3ccccc3[nH]2)c1)NO | Active | 0.0132 | 0.024 | 0.046 | 5.98 | 2.7 | 3.9 | 0.02 | 0.19 | 0.29 | Active | Non-Toxic | 4.8 | Active | Active | Active | Non-Toxic | Non-Toxic | Non-Toxic | Non-Toxic | fold change (FC) (B16-F10 [13]): 1.6; fold change (FC) (B16-F10 [14]): 1.3; fold change (FC) (B16-F10 [15]): 1.5; fold change (FC) (B16-F10 [16]): 1.3; Activity (B16-F10 [17]): Active; Activity (B16-F10 [18]): Active
